This note sets out measurements from ChEMBL document CHEMBL3217612, “Progress on lamellarins” (Medchemcomm, 2011).

Where only a bound is given, the exact number is not on record here.

The test system of test [1] is KB. Kind of test: Cytotoxicity against human KB cells after 48 hrs by XTT assay. Type of test: functional, cell-based.
Test [2] has as its system A549. Kind of test: Cytotoxicity against human A549 cells after 48 hrs by XTT assay. The class given is functional, cell-based. The note with it: A549, 48 h. In general terms: Tetrazolium dyes change colour on reduction, which living cells bring about.
Test [3] deals with H69AR. Kind of test: Cytotoxicity against human H69AR cells after 48 hrs by XTT assay. The class given is functional, cell-based.
The subject of test [4] is T47D. Nature of the test: Cytotoxicity against human T47D cells after 48 hrs by XTT assay. Type of test: functional, cell-based.
The subject of test [5] is MDA-MB-231. Nature of the test: Cytotoxicity against human MDA-MB-231 cells after 48 hrs by XTT assay. The class given is functional, cell-based. Particulars: MDA-MB-231, 48 h.
The nature of test [6]: Cytotoxicity against human HuCCa1 cells after 48 hrs by XTT assay. The class given is functional, cell-based. The note with it: HuCC-A1, 48 h.
Test [7] deals with HepG2. Nature of the test: Cytotoxicity against human HepG2 cells after 48 hrs by XTT assay. Particulars: HepG2, 48 h. The class given is functional, cell-based.
Test [8] in a line: Cytotoxicity against human HCC-S102 cells after 48 hrs by XTT assay. The class given is functional, cell-based. The note with it: HCC-S102, 48 h.
In test [9] the test system is HeLa. Nature of the test: Cytotoxicity against human HeLa cells after 48 hrs by XTT assay. The class given is functional, cell-based.
Test [10] has as its system P388. Nature of the test: Cytotoxicity against mouse P388 cells after 48 hrs by XTT assay. The note with it: P388, 48 h. Type of test: functional, cell-based.
In test [11] the test system is HL-60. Kind of test: Cytotoxicity against human HL60 cells after 48 hrs by XTT assay. The class given is functional, cell-based. Particulars: HL-60, 48 h.
Test [12] concerns MRC5. Nature of the test: Cytotoxicity against human MRC5 cells after 48 hrs by XTT assay. Particulars: MRC5, 48 h. The class given is cell-based.
The nature of test [13]: Cytotoxicity against human MOLT3 cells after 48 hrs by XTT assay. Type of test: functional, cell-based. The note with it: MOLT-3, 48 h.

For orientation: IC50 means the concentration at which inhibition is half-maximal. A low value points to greater potency in that assay. Take `COc1ccc(-c2c3c4cc(OC)c(O)cc4oc(=O)c3n3ccc4cc(O)c(OC)cc4c23)cc1O`: the half-maximal inhibitory concentration (IC50) amounted to 60 nM in test [1]; 40 nM in test [2]; 60 nM in test [3]; 0.6 nM in [4]; 600 nM in test [5]; 8 nM in test [6]. Moreover, the IC50 in test [7] was 20 nM; in [8] it was 2300 nM; in test [9] it was 40 nM; in test [10] it was 80 nM; in test [11], 40 nM; in test [12], more than 100000 nM.

In the case of `COc1cc(-c2c3c4cc(OC)c(O)cc4[nH]c(=O)c3n3ccc4cc(O)c(OC)cc4c23)ccc1O`, the IC50 in test [2] was 740 nM; in test [6], 120 nM; in test [7] it was 130 nM; in test [13] it was 30 nM.

On to `COc1cc2c(cc1O)oc(=O)c1c2c(-c2ccc(OC)c(OC)c2)c2c3cc(OC)c(O)cc3ccn21`, for which the IC50 came to 80 nM in [1]; 40 nM in test [2]; 300 nM in test [3]; 0.1 nM in test [4]; 400 nM in test [5]; 6 nM in test [6]. For the same compound, the IC50 is 10 nM in [7]; 2100 nM in [8]; 80 nM in test [9]; 80 nM in [10]; 40 nM in test [11]; more than 97400 nM in test [12].

Take `COc1cc(-c2c3c4cc(OC)c(O)cc4oc(=O)c3n3ccc4c(O)c(OC)c(OC)cc4c23)ccc1O`: the IC50 in [1] was 200 nM; in test [2], 40 nM; in test [3], 300 nM; in test [4], 9 nM; in test [5] it was 100 nM; in test [6] it was 60 nM. The half-maximal inhibitory concentration (IC50) came to 20 nM in [7]; 1900 nM in test [8]; 300 nM in test [9]; 100 nM in test [10]; 60 nM in [11]; 13400 nM in [12].

In the case of `COc1ccc(-c2c3c4cc(OC)c(O)cc4oc(=O)c3n3ccc4c(O)c(OC)c(OC)cc4c23)cc1O`, the IC50 in test [1] amounted to 80 nM; in [2], 300 nM; in [3], 300 nM; in test [4] it was 6 nM; in test [5], 80 nM; in test [6], 40 nM. In addition, the half-inhibitory concentration (IC50) worked out at 200 nM in test [7]; 1600 nM in test [8]; 90 nM in [9]; 300 nM in test [10]; 200 nM in [11]; 10100 nM in [12].

For `COc1cc2c(cc1O)oc(=O)c1c2c(-c2ccc(OC)c(OC)c2)c2c3cc(OC)c(OC)c(O)c3ccn21`, the concentration for half-maximal inhibition (IC50) in test [1] is 300 nM; in [2] it was 300 nM; in test [3], 2300 nM; in test [4] it was 6 nM; in test [5], 300 nM; in test [6] it was 70 nM. In addition, the IC50 was 100 nM in test [7]; 2100 nM in test [8]; 300 nM in [9]; 300 nM in test [10]; 100 nM in [11]; 25800 nM in test [12].

For the compound `COc1cc(-c2c3c4cc(OC)c(O)cc4oc(=O)c3n3ccc4cc(O)c(OC)cc4c23)ccc1O` [LAMELLARIN D], the IC50 in test [1] was found to be 40 nM; in [2], 60 nM; in test [3], 400 nM; in test [4] it was 0.08 nM; in test [5], 400 nM; in [6], 80 nM. Moreover, the half-inhibitory concentration (IC50) turned out to be 20 nM in test [7]; 3200 nM in test [8]; 60 nM in test [9]; 100 nM in test [10]; 40 nM in [11]; 49 nM in [13]. In [12], this compound showed an IC50 of 9200 nM.
